Test results published in patent US10071103B2, “Treatments for resistant acne” (VYOME BIOSCIENCES PVT. LTD., priority 2014, dated 2018).
≈ marks a conversion by molar mass, not a printed value. Entries after “also recorded” stand apart in the source; their conditions may differ. Where two headings read alike, the source gives them in different places.

Assays:
S. aureus MTCC 6908 = experiment: MIC by micro broth dilution, laboratory S. aureus strain; type: cell-based, Staphylococcus aureus; conditions: Staphylococcus aureus, MTCC6908; Table 6; read-out: MIC Susceptible S. aureus (6908) strain
Method: The plates were incubated at 37° C. for 48 h under anaerobic condition for P. acnes and 37° C. for 24 h for S. aureus The plates were read under Bio-Rad plate reader at 595 nm for optical density to generate the dose-response curves. The MIC of the test compound was recorded by addition of Alamar blue dye.
S. aureus MTCC 6908 were grown in Tryptone Soya Agar (TSA) at 37° C. for 24 hours. […] Plates were incubated at 37° C. for 24 hours. […] (2) Zone of Inhibition (ZOI): S. aureus MTCC 6908 were grown in Tryptone Soya Agar (TSA) at 37° C. for 24 hours. BHA plates are spreaded with 100 μl of 0.5 McFarland standard equal bacterial suspension. Test samples (drugs/formulations) were dissolved in water/solvent based on the solubility. Sterile disc (6 mm) were loaded with 10 μl of test samples (of various concentration of drug), and were placed above the spreaded plates. Plates were incubated at 37 C for 24 h, followed by ZOI measurement. (3) Time Kill Assay: 0.5 McFarland standard equal S. aureus culture was prepared in sterile water. Besifloxacin gels were diluted in Tryptone Soya broth (TSB) to get final concentration of 25 μg/ml. Then 900 μl of S. aureus 0.5 McFarland standard equal culture and 100 μl of diluted Besifloxacin gel was mixed to obtain final Besifloxacin concentration, 2.5 μl g/ml. Total reaction mixture (1 ml) was incubated at 37° C. in a tube rotator. After 2 and 6 h exposure, bacterial suspension was placed on Tryptone soya agar plate and incubated at 37° C. for 24 h.
Inoculated plates were incubated at 37° C. for 24 hours.

IL-1α = experiment: P. acnes-induced IL-1α release in THP-1 cells (ELISA); type: cell-based; conditions: 25 μg/ml, 100% = P. acnes induced cells
Method: Method: Preparation of Stimulant for Inflammation: P. acnes culture suspension was prepared in PBS and the cell number in the suspension was adjusted to approximately 5×10^8 CFU/ml by measuring the cell density using a Densimat. The bacterial suspension was then heat killed at 80° C. for 30 min and stored at −80° C. until further use.
Cells were seeded in a 96-well format (2×10^5 THP-1 cells per well) in media containing 10% FBS. The cells were stimulated to induce inflammatory cytokines using 3 McFarland equivalent heat-killed P. acnes. Cells in control wells were treated with PBS. One hour after induction with P. acnes, test agents were added to the induced cells at appropriate concentrations to be tested (compound 91 at 25 μg/ml). The plates were incubated at 37° C. for 24 hours. After 24 h, the plates were centrifuged to pellet the cells and the supernatants were collected. The cell culture supernatants thus obtained were analyzed for levels of cytokines (IL-1α, IL-1β, IL-6 and IL-8) by ELISA using R&D Systems kits for individual cytokines following the manufacturer's instructions.

IL-8 = experiment: P. acnes-induced IL-8 release in THP-1 cells (ELISA); type: cell-based; conditions: 25 μg/ml
E. coli DNA gyrase = molecular target: T1, E. coli DNA gyrase (Escherichia coli, UniProt P0AES4+P0AES6); experiment: DNA gyrase super-coiling activity assay (Topogen kit, relaxed pHOT1 plasmid); type: biochemical; conditions: for Super-coiled band (percentage of DNA super-coiling): untreated control 100%; for Inhibition of super-coiling activity of DNA gyrase (in words): 1 μM and 2.5 μM
T1 construct: purchased Topogen Inc
Method: DNA super-coiling activity was assayed using DNA gyrase assay kit (Topogen Inc.) with relaxed pHOT1 E. coli plasmid DNA according to manufacturer's protocol. The standard reaction mixture (20 μl) contained 35 mM Tris-HCl (pH 7.5), 24 mM KCl, 4 mM MgCl2, 2 mM dithiothreitol, 1.8 mM spermidine, 1 mM ATP, 6.5% glycerol, 0.1 mg/ml bovine serum albumin (BSA), 10 μg/ml relaxed pHOT1 plasmid DNA and 1 U of DNA gyrase. The reaction mixture was incubated at 37° C. for 1 h in presence of selected compounds/fluoroquinolone at different concentrations. The reaction was terminated by addition of ⅕ volume of loading dye (4 μl) followed by proteinase K (50 μg/ml) and again incubated at 37° C. for half an hour. 20 μl chloroform/isoamyl alcohol (24:1) was added to each tube and vortexed briefly. Thereafter, the blue aqueous phase was separated out and analyzed by 1% agarose gel electrophoresis. The gel was stained by ethidium bromide for half an hour and destained with water for 15 mins. The gel was then visualized in a trans-illuminator and photographed.

P. acnes MTCC 1951 = type: cell-based, Propionibacterium acnes; conditions: for MPC/MIC: ratio against P. acnes
Method: 3 to 4 Petri plates containing 48 h P. acnes culture was suspended in sterile Phosphate buffer saline, PBS (pH 7.2) and turbidity was adjusted to optical density of 1 at 600 nm (10^9 cells/ml). 50 ml of this culture suspension was centrifuged at 4000 rpm for 40 min. The supernatant was discarded and pellet resuspended in 250 μl of sterile PBS. 50 μl of these cell suspensions (10^10 cells) was spread over the plates containing various concentrations of antibiotics (around MIC range). Plates were incubated at 37° C. for 48 h and the lowest concentration of the drug that allowed no growth was taken as its MPC.

IL-6 = experiment: P. acnes-induced IL-6 release in THP-1 cells (ELISA); type: cell-based; conditions: 25 μg/ml, THP-1 cells, 100% = P. acnes induced cells

T1 sequence (P0AES4 whole entry, one chain of several): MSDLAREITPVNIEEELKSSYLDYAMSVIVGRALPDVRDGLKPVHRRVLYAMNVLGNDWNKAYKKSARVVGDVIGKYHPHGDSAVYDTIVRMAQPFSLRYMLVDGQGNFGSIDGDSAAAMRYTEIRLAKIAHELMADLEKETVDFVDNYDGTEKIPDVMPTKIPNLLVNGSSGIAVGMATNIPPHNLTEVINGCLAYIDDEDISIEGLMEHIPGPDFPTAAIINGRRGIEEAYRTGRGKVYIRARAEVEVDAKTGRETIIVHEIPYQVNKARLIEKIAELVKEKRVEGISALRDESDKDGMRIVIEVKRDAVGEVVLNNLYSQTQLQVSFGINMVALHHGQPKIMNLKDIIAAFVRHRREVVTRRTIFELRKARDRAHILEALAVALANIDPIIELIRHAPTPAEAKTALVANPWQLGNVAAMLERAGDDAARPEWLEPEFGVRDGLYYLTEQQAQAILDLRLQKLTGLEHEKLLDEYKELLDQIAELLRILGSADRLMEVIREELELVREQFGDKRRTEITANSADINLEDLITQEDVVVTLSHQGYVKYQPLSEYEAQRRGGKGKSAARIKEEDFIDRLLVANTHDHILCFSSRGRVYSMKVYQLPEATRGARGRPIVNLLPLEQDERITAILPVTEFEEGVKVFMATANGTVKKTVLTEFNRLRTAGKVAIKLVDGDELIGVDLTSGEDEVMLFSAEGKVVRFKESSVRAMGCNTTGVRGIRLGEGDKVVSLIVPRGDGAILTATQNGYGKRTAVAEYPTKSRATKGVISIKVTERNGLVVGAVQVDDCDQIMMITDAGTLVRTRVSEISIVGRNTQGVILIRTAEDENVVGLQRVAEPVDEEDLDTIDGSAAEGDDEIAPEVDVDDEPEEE

## Cc1ncc([N+](=O)[O-])n1CC(O)CN1CCN(c2cc3c(cc2F)c(=O)c(C(=O)O)c2n3C(C)S2)CC1 (centres unmarked) [Compound 91, 6-Fluoro-7-{4-[2-hydroxy-3-(2-methyl-5-nitro-imidazol-1-yl)-propyl]-piperazin-1-yl}-1-methyl-4-oxo-4H-2-thia-8b-aza-cyclobuta[a]naphthalene-3-carboxylic acid]
S. aureus MTCC 6908
  MIC: 1.5 µg/mL (≈ 2.82 µM)
IL-1α
  Percentage reduction in P. acnes induced IL-1α release: 27.51%
IL-1α; listed as compound 91
  Percentage reduction in P. acnes induced IL-1α release: 20-25%
IL-8; P. acnes-induced THP-1 cells
  Effect on IL-8 levels (in words): did not have an effect
IL-8; THP-1 cells, 100% = P. acnes induced cells
  Percentage reduction in P. acnes induced IL-8 release: 14.65%
E. coli DNA gyrase; 0.25 μM
  Super-coiled band (percentage of DNA super-coiling): around 54.3%
E. coli DNA gyrase
  Inhibition of super-coiling activity of DNA gyrase (in words): best gyrase inhibiting activity; also recorded: greater efficacy
E. coli DNA gyrase; listed as compound 91
  Inhibition of super-coiling activity of DNA gyrase (in words): able to inhibit the super-coiling activity; also recorded: highly potent; also recorded: better efficacy; also recorded: most potent
E. coli DNA gyrase; 5 μM
  Super-coiled band (percentage of DNA super-coiling): about 2%
P. acnes MTCC 1951; P. acnes, 10^10 cells inoculum
  MPC: 0.3 to 0.6 µg/mL
P. acnes MTCC 1951
  MPC/MIC: 1.5-3
P. acnes MTCC 1951; listed as compound 91
  MPC/MIC: 1.5
IL-6
  Percentage reduction in P. acnes induced IL-6 release: 56.76%
IL-6; listed as compound 91
  Percentage reduction in P. acnes induced IL-6 release: ~60%
